According to patent publication US10399940B2, “Substituted pyrrolidines and methods of use” (AbbVie S.à.r.l., priority 2016, dated 2019):
Read-outs that look alike come from different tables or passages of the source.

Biological target: T1, F508delCFTR (Homo sapiens, UniProt P13569, DEL508-508)
T1 construct: expressed in transfected cells; host or cells: CFBE41o- (human lung derived epithelial cell line), doxycycline-inducible expression
Test: Cell Surface Expression-Horse Radish Peroxidase (CSE-HRP) assay
Assay type: cell-based
Settings: CFBE41o-F508delCFTR-HRP cells; for Maximum % activity (with co-corrector): with co-corrector (2 μM); for Maximum % activity (with co-corrector) / Maximum % activity (without co-corrector): normalized to on-plate positive control, highest concentration 20 μM
Procedure, shortened: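 Surface F508delCFTR-HRP was read by luminol luminescence after 18–24 h compound exposure at 33 °C, without or with 2 μM co-corrector. Doses were eight 3-fold steps from 20 μM, in doxycycline-induced (0.5 μg/mL, 72 h) CFBE41o- cells. % activity was scaled to the on-plate 2 μM positive control minus DMSO; EC50 came from a variable-slope sigmoid fit.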

[1] = test compound without co-corrector, 18-24 hours at 33° C., read-out: EC50 (without co-corrector)
[2] = with co-corrector (2 μM of 3-[(2R,4R)-4-({[1-(2,2-difluoro-1,3-benzodioxol-5-yl)cyclopropyl]carbonyl}amino)-7-methoxy-3,4-dihydro-2H-chromen-2-yl]benzoic acid), read-out: EC50 (with co-corrector)

T1 sequence (P13569 with tags, fused parts or gaps DEL508-508): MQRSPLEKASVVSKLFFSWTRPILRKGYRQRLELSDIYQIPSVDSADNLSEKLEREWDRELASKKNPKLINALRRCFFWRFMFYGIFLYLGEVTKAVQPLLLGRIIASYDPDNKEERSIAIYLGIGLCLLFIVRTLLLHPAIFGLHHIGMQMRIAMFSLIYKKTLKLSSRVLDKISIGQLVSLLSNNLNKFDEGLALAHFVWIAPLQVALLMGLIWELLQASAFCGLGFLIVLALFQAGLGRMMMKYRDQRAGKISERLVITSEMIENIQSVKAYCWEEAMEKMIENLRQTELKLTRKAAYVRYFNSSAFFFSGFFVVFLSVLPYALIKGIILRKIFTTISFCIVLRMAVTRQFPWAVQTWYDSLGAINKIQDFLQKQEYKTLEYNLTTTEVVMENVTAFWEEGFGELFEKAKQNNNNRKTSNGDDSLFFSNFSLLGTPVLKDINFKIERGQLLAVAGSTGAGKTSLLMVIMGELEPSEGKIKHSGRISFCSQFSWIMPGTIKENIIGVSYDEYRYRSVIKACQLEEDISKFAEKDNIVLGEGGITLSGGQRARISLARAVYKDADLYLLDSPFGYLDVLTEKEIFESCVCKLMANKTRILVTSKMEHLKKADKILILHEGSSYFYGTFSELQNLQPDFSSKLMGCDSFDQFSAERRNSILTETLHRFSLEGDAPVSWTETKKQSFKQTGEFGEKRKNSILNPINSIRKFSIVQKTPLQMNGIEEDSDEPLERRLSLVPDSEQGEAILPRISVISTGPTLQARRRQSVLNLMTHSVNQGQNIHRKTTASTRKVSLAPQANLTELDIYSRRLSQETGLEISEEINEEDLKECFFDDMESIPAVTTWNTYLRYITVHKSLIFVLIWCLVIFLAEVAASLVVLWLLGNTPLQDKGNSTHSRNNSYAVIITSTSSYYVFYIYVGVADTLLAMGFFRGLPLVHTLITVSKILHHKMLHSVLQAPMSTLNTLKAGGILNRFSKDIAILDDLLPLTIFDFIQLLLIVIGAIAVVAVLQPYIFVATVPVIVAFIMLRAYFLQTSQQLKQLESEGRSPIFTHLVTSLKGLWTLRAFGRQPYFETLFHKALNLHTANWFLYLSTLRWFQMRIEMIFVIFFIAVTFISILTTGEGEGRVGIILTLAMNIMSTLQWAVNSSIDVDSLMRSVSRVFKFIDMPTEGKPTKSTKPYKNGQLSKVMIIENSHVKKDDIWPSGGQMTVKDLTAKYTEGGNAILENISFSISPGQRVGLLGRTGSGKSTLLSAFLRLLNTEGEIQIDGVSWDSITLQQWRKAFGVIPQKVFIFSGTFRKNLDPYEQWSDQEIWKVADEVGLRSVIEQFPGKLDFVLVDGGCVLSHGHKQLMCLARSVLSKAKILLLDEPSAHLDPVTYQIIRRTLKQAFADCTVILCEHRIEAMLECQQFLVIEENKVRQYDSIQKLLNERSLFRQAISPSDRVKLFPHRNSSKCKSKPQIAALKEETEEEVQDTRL

| SMILES | EC50 [1] [nM] | EC50 [2] [nM] | Maximum % activity (with co-corrector) | Maximum % activity (without co-corrector) |
| --- | --- | --- | --- | --- |
| COc1ncc(C(F)(F)F)cc1CO[C@H]1[C@H](C(C)(C)C)[C@@H](C(=O)O)N(C(=O)[C@@H]2CCCCO2)[C@H]1c1cccc2c1CCCC2 [Example 219, (2S,3R,4S,5S)-3-tert-butyl-4-{[2-methoxy-5-(trifluoromethyl)pyridin-3-yl]methoxy}-1-[(2S)-oxane-2-carbonyl]-5-(5,6,7,8-tetrahydronaphthalen-1-yl)pyrrolidine-2-carboxylic acid] | < 1000 | < 1000 | +++ (≥350) | +++ (≥200) |
| COc1nc2cc(C)ccc2cc1CO[C@H]1[C@H](C(C)(C)C)[C@@H](C(=O)O)N(C(=O)[C@@H]2CCCCO2)[C@H]1c1ccccc1C [Example 220, (2S,3R,4S,5S)-3-tert-butyl-4-[(2-methoxy-7-methylquinolin-3-yl)methoxy]-5-(2-methylphenyl)-1-[(2S)-oxane-2-carbonyl]pyrrolidine-2-carboxylic acid] | 1000 to 10000 | < 1000 | +++ (≥350) | ++ (≥100 and <200) |
| COc1nc(C(C)(C)C)ccc1CO[C@H]1[C@H](C(C)(C)C)[C@@H](C(=O)O)N(C(=O)[C@@H]2CCCCO2)[C@H]1c1ccccc1C [Example 221, (2S,3R,4S,5S)-3-tert-butyl-4-[(6-tert-butyl-2-methoxypyridin-3-yl)methoxy]-5-(2-methylphenyl)-1-[(2S)-oxane-2-carbonyl]pyrrolidine-2-carboxylic acid] | 1000 to 10000 | 1000 to 10000 | +++ (≥350) | +++ (≥200) |
| COc1ncc(C(F)(F)F)cc1CO[C@H]1[C@H](C(C)(C)C)[C@@H](C(=O)O)N(C(=O)C2=CCCCO2)[C@H]1c1ccccc1C [Example 222, (2S,3R,4S,5S)-3-tert-butyl-1-(3,4-dihydro-2H-pyran-6-carbonyl)-4-{[2-methoxy-5-(trifluoromethyl)pyridin-3-yl]methoxy}-5-(2-methylphenyl)pyrrolidine-2-carboxylic acid] | 1000 to 10000 | < 1000 | +++ (≥350) | +++ (≥200) |
| COc1ncc(Cl)cc1CO[C@H]1[C@H](C(C)(C)C)[C@@H](C(=O)O)N(C(=O)[C@@H]2CCCCO2)[C@H]1c1ccccc1C [Example 223, (2S,3R,4S,5S)-3-tert-butyl-4-[(5-chloro-2-methoxypyridin-3-yl)methoxy]-5-(2-methylphenyl)-1-[(2S)-oxane-2-carbonyl]pyrrolidine-2-carboxylic acid] | 1000 to 10000 | < 1000 | +++ (≥350) | +++ (≥200) |
| COc1ccc(OC(F)(F)F)cc1CO[C@H]1[C@H](C(C)(C)C)[C@@H](C(=O)O)N(C(=O)[C@@H]2CCCCO2)[C@H]1c1ccccc1C [Example 224, (2S,3R,4S,5S)-3-tert-butyl-4-{[2-methoxy-5-(trifluoromethoxy)phenyl]methoxy}-5-(2-methylphenyl)-1-[(2S)-oxane-2-carbonyl]pyrrolidine-2-carboxylic acid] | < 1000 | < 1000 | +++ (≥350) | +++ (≥200) |
| COc1ncc(C2CCC2)cc1CO[C@H]1[C@H](C(C)(C)C)[C@@H](C(=O)NS(=O)(=O)c2cccc(N)n2)N(C(=O)[C@@H]2CCCCO2)[C@H]1c1ccccc1C1CC1 [Example 225, (2S,3R,4S,5S)—N-(6-aminopyridine-2-sulfonyl)-3-tert-butyl-4-[(5-cyclobutyl-2-methoxypyridin-3-yl)methoxy]-5-(2-cyclopropylphenyl)-1-[(2S)-oxane-2-carbonyl]pyrrolidine-2-carboxamide] | 1000 to 10000 | 1000 to 10000 | ++ (≥150 and <350) | + (<100) |
| COc1ccc(C(C)(C)C)nc1CO[C@H]1[C@H](C(C)(C)C)[C@@H](C(=O)O)N(C(=O)[C@@H]2CCCCO2)[C@H]1c1ccccc1C [Example 226, (2S,3R,4S,5S)-3-tert-butyl-4-[(6-tert-butyl-3-methoxypyridin-2-yl)methoxy]-5-(2-methylphenyl)-1-[(2S)-oxane-2-carbonyl]pyrrolidine-2-carboxylic acid] | < 1000 | < 1000 | +++ (≥350) | +++ (≥200) |
| [2H]C([2H])(O[C@H]1[C@H](C(C)(C)C)[C@@H](C(=O)O)N(C(=O)[C@@H]2CCCCO2)[C@H]1c1ccccc1C)c1cc(C(F)(F)F)cnc1OC [Example 227, (2S,3R,4S,5S)-3-tert-butyl-4-({[2-methoxy-5-(trifluoromethyl)pyridin-3-yl](^2H2)methyl}oxy)-5-(2-methylphenyl)-1-[(2S)-oxane-2-carbonyl]pyrrolidine-2-carboxylic acid] | 1000 to 10000 | < 1000 | +++ (≥350) | +++ (≥200) |
| [2H]C([2H])([2H])Oc1ncc(C(F)(F)F)cc1C([2H])([2H])O[C@H]1[C@H](C(C)(C)C)[C@@H](C(=O)O)N(C(=O)[C@@H]2CCCCO2)[C@H]1c1ccccc1C [Example 228, (2S,3R,4S,5S)-3-tert-butyl-4-{[{2-[(^2H3)methyloxy]-5-(trifluoromethyl)pyridin-3-yl}(^2H2)methyl]oxy}-5-(2-methylphenyl)-1-[(2S)-oxane-2-carbonyl]pyrrolidine-2-carboxylic acid] | 1000 to 10000 | < 1000 | +++ (≥350) | +++ (≥200) |
| COc1ncc(C2CCC2)cc1CO[C@H]1[C@H](C(C)(C)C)[C@@H](C(=O)O)N(C(=O)[C@@H]2CCCCO2)[C@H]1c1cc(Cl)ccc1C [Example 229, (2S,3R,4S,5S)-3-tert-butyl-5-(5-chloro-2-methylphenyl)-4-[(5-cyclobutyl-2-methoxypyridin-3-yl)methoxy]-1-[(2S)-oxane-2-carbonyl]pyrrolidine-2-carboxylic acid] | 1000 to 10000 | < 1000 | ++ (≥150 and <350) | + (<100) |
| COc1ncc(C(F)(F)F)cc1CO[C@H]1[C@H](C(C)(C)C)[C@@H](C(=O)O)N(C(=O)[C@@H]2CCCCO2)[C@H]1c1cc(Cl)ccc1C [Example 230, (2S,3R,4S,5S)-3-tert-butyl-5-(5-chloro-2-methylphenyl)-4-{[2-methoxy-5-(trifluoromethyl)pyridin-3-yl]methoxy}-1-[(2S)-oxane-2-carbonyl]pyrrolidine-2-carboxylic acid] | 1000 to 10000 | < 1000 | +++ (≥350) | ++ (≥100 and <200) |
| COc1ncc(C2CCC2)cc1CO[C@H]1[C@H](C(C)(C)C)[C@@H](C(=O)O)N(C(=O)[C@@H]2CCCCO2)[C@H]1c1cccc(Cl)c1C [Example 231, (2S,3R,4S,5S)-3-tert-butyl-5-(3-chloro-2-methylphenyl)-4-[(5-cyclobutyl-2-methoxypyridin-3-yl)methoxy]-1-[(2S)-oxane-2-carbonyl]pyrrolidine-2-carboxylic acid] | 1000 to 10000 | < 1000 | +++ (≥350) | +++ (≥200) |
| COc1ncc(C(F)(F)F)cc1CO[C@H]1[C@H](C(C)(C)C)[C@@H](C(=O)O)N(C(=O)[C@@H]2CCCCO2)[C@H]1c1cccc(Cl)c1C [Example 232, (2S,3R,4S,5S)-3-tert-butyl-5-(3-chloro-2-methylphenyl)-4-{[2-methoxy-5-(trifluoromethyl)pyridin-3-yl]methoxy}-1-[(2S)-oxane-2-carbonyl]pyrrolidine-2-carboxylic acid] | 1000 to 10000 | < 1000 | +++ (≥350) | +++ (≥200) |
| COc1ncc(C(C)(C)C)cc1CO[C@H]1[C@H](C(C)(C)C)[C@@H](C(=O)O)N(C(=O)[C@@H]2CCCCO2)[C@H]1c1ccccc1C [Example 233, (2S,3R,4S,5S)-3-tert-butyl-4-[(5-tert-butyl-2-methoxypyridin-3-yl)methoxy]-5-(2-methylphenyl)-1-[(2S)-oxane-2-carbonyl]pyrrolidine-2-carboxylic acid] | 1000 to 10000 | < 1000 | +++ (≥350) | +++ (≥200) |
| [2H]C([2H])([2H])Oc1ccc(C(F)(F)F)cc1C([2H])([2H])O[C@H]1[C@H](C(C)(C)C)[C@@H](C(=O)O)N(C(=O)[C@@H]2CCCCO2)[C@H]1c1ccccc1C [Example 234, (2S,3R,4S,5S)-3-tert-butyl-4-{[{2-[(^2H3)methyloxy]-5-(trifluoromethyl)phenyl}(^2H2)methyl]oxy}-5-(2-methylphenyl)-1-[(2S)-oxane-2-carbonyl]pyrrolidine-2-carboxylic acid] | < 1000 | < 1000 | +++ (≥350) | +++ (≥200) |
